From publication PMC8816521, “Flux-Based Formulation Development—A Proof of Concept Study” (The AAPS Journal, 2022)
Values after ≈ are worked out from the molar mass of the structure shown. Where two headings read alike, the source gives them in different places.

Key:
[1] = PAMPA for evaluating the effect of formulation additives on TEL permeability; format: in vitro ADME; details: for Pe: acceptor pH 7.4, 37°C
Experimental: Each well of the top (donor) compartment of 96-well […]™ PAMPA sandwich (Pion Inc., Billerica MA, USA) was coated with 4 μL of n-dodecane. Before forming the sandwich, the bottom (acceptor) plate was prefilled with 180 μL of pH = 7.4 Prisma^HT buffer. The donor plate was filled with 200 μL of FaSSIF buffer with pre-dissolved TEL and formulation additives. The resultant sandwich was incubated at 37°C, and both compartments were stirred at 60 μm (ABL) with Gut-Box™ (Pion Inc., Billerica MA, USA). After 30 min, the PAMPA sandwich was separated, and 100 μL of both the donor and acceptor compartments were transferred to UV plates (UV-star micro plate, clear, flat bottom, half area, Greiner Group AG, Kremsmünster, Austria). UV absorption (230–400 nm) was measured with Tecan Infinite M200 (Tecan Group Ltd., Mannedorf, Switzerland) driven by PAMPA Explorer software™ (Pion Inc., Billerica MA, USA). Three parallel measurements were performed, and the data were measured with six replicates on every single plate.
(§1) The flux across the membrane was calculated using the following equation: 1 Jt=Δn/A*Δt
(§2) where the flux (J) of a drug through the membrane is defined as the amount (n) of drug crossing a unit area (A) perpendicular to its flow per unit time (t). 2 Pe=J/CD where the Pe is the effective permeability of the drug and CD is donor concentration.
At first, an excipient screening on the PAMPA platform was carried out. The excipients of the available TEL formulations and commonly used standard excipients were involved in the investigation of API-excipient interaction. The concentration of the excipients was determined by referring the usual amount of additives in one tablet to 900 mL dissolution media. Due to the experimental differences in the applied doses, the flux data were considered misleading, and the permeability value was used since it is normalized by the donor concentration.

[2] = Kinetic solubility in FaSSIF with pre-dissolved additives (in situ UV probes, ZIM); format: physicochemical; details: 37 °C
Experimental: Note that in the context of this manuscript, solubility measured by this method will be called kinetic solubility because the form of the solid phase precipitating during these assays was not characterized. […] Ten milliliters of dissolution medium consisting of equilibrated fasted state simulated intestinal fluid (FaSSIF) buffer containing pre-dissolved additives was stirred at 200 rpm and held at 37°C by circulating water through a heating block mounted to a Pion μDISS™ profiler (Pion Inc., Billerica MA, USA). The stock solution was added in 20 μL aliquots to the dissolution medium. 1 M HCl was used to readjust the pH of the media after every addition of the stock solution. During and after addition of the stock solution, UV probes connected to a Pion Rainbow™ Dynamic Dissolution Monitor® system were used to detect changes in UV spectra, thus enabling the detection of precipitation, which provides information about the kinetic solubility limit.
The zero intercept method (ZIM) was implemented in the AuPRO™ software (Pion Inc., Billerica MA, USA), which was considered a suitable method for detecting the solid nanoparticles in solution. It can be noticed that the second derivative spectrum of a particular compound usually crosses the wavelength axis at specific wavelengths that we will call zero intercept method points or ZIM points (λZIM). The ZIM points are characteristic of the compound and are independent of the concentration. The second derivative values at λZIM are expected to be zero […] the compound is fully dissolved. After a critical concentration, solid particles appear in the solution, and a ZIM point shift can be observed. In case of TEL, the ZIM evaluation was carried out at a wavelength of 318 nm.

Solubility of TEL = format: physicochemical
[3] = parameters: method as in PMID 18501462, PMID 31458196; details: between pH 3 and 8; cited from earlier work
[4] = Small volume dissolution-permeation (MicroFLUX); format: in vitro ADME; details: small scale; donor pH 1.6 converted to FaSSIF pH 6.5 after 30 min, acceptor pH 7.4, 37°C, calculated between 70 and 100 min
Experimental: as §1, §2
Electrospun formulations of TEL were tested using μFLUX (Pion Inc., Billerica MA, USA) apparatus which consists of a donor and an acceptor chamber separated by an artificial membrane (PVDF, polyvinylidenfluoride, 0.45 μm, 1.54 cm^2) impregnated with 25 μL n-dodecane to form a lipophilic barrier between the donor and acceptor chambers. In case of oral drug delivery, the donor chamber represents the stomach’s condition, while the 18 mL pH 7.4 buffer of acceptor chamber represents the blood circulation. The attempt was started in 16 mL pH 1.6 buffer solution; then after 30 min, media in the dissolution vessel was converted to FaSSIF (pH 6.5) by adding 4 mL of SIF concentrate. Both chambers were stirred at 250 rpm at 37°C to keep the thickness of the unstirred aqueous layer on minimum. In both chambers, the API concentration was followed by immersed UV probes connected to the Rainbow instrument (Pion Inc., Billerica MA, USA). The flux and permeability values were calculated using Eqs. (1) and (2) between 70 and 100 min. […]

[5] = Large volume dissolution-permeation (MacroFLUX); format: in vitro ADME; details: large scale; donor SGF pH 1.6 converted to FaSSIF pH 6.5 after 30 min, acceptor pH 7.4, 37°C, calculated between 70 and 100 min
Experimental: Final dosage forms of TEL were tested using MacroFLUX^TM (Pion Inc., Billerica MA, USA). […] The flux and permeability values were calculated using Eqs. (1) and (2) between 70 and 100 min.
The MacroFLUX system equipped with in situ fiber optic concentration monitoring was used in this final investigation. The same media conversion protocol as in the case of small volume dissolution-permeation measurements was applied in the dissolution vessel [28]. Micardis, the brand formulation, and the pure amorphous drug were used as references.
Receiver chamber integrated with permeation membrane, overhead stirrer and fiber optic UV probe was inserted in the standard 900 mL vessel of USP 2 apparatus (Erweka DT 126 Dissolution Tester, Heusenstamm Germany). A filter-supported artificial membrane (hydrophobic PVDF, polyvinylidenfluoride, 0.45 μm pore size, 3.8 cm^2) impregnated with 50 μL of n-dodecane was separating the dissolution (donor) compartment from the receiver compartment containing 13 mL of pH 7.4 (Prisma^HT, Pion Inc.). The experiment began in 850 mL of pH 1.6 buffer simulating gastric conditions (SGF) on the donor side and then after 30 minutes media in the dissolution vessel was converted to fasted state simulated intestinal fluid (FaSSIF V1) (pH 6.5) by adding 212.5 mL of specially formulated concentrate containing SIF powder. […]

Structure (SMILES): CCCc1nc2c(C)cc(-c3nc4ccccc4n3C)cc2n1Cc1ccc(-c2ccccc2C(=O)O)cc1 [TEL, telmisartan]
- Papp at 30 min ([1]; PAMPA, excipient-free TEL on the plate of the additive in that table row, FaSSIF donor, 37°C, read-out: Reference Pe): 111 ×10⁻⁶ cm/s
- Pe ([1]; TEL with HMPC 2910 212 μg/mL in FaSSIF donor, 30 min): 1.22 10^−4 cm/sec
- Pe ([1]; TEL with HPMC-AS 212 μg/mL in FaSSIF donor, 30 min): 1.28 10^−4 cm/sec
- Pe ([1]; TEL with HPβCD 1386 μg/mL in FaSSIF donor, 30 min): 1.21 10^−4 cm/sec
- Pe ([1]; TEL with Lactose monohydrate 667 μg/mL in FaSSIF donor, 30 min): 1.39 10^−4 cm/sec
- Pe ([1]; TEL with Mannitol 667 μg/mL in FaSSIF donor, 30 min): 1.23 10^−4 cm/sec
- Pe ([1]; TEL with PVP K30 212 μg/mL in FaSSIF donor, 30 min): 1.31 10^−4 cm/sec
- Pe ([1]; TEL with PVP K90 212 μg/mL in FaSSIF donor, 30 min): 1.25 10^−4 cm/sec
- Pe ([1]; TEL with SDS 850 μg/mL in FaSSIF donor, 30 min): 0.83 10^−4 cm/sec
- Pe ([1]; TEL with Sorbitol 667 μg/mL in FaSSIF donor, 30 min): 1.42 10^−4 cm/sec
- Pe ([1]; TEL with Tween 80 0.45 μg/mL in FaSSIF donor, 30 min): 0.86 10^−4 cm/sec
- Reference Pe ([1]; excipient-free TEL on the plate of the additive in that table row, FaSSIF donor, 37°C, 30 min): 1.16 10^−4 cm/sec
- solubility kinetic ([2]; FaSSIF buffer with pre-dissolved additive, pH 6.5, aqueous with cosolvent or surfactant or cyclodextrin, TEL in FaSSIF with HPβCD 1386 μg/mL): 37.5 µg/mL (≈ 72.9 µM)
- solubility kinetic ([2]; FaSSIF buffer with pre-dissolved additive, pH 6.5, aqueous with cosolvent or surfactant or cyclodextrin, TEL in FaSSIF with SDS 850 μg/mL): 45.9 µg/mL (≈ 89.1 µM)
- solubility kinetic ([2]; FaSSIF buffer with pre-dissolved additive, pH 6.5, aqueous with cosolvent or surfactant or cyclodextrin, TEL in FaSSIF with Tween 80 0.45 μg/mL): 64.3 µg/mL (≈ 125 µM)
- solubility kinetic ([2]; FaSSIF buffer with pre-dissolved additive, pH 6.5, fassif, TEL in FaSSIF with HMPC 2910 212 μg/mL): 30.9 µg/mL (≈ 60 µM)
- solubility kinetic ([2]; FaSSIF buffer with pre-dissolved additive, pH 6.5, fassif, TEL in FaSSIF with HPMC-AS 212 μg/mL): 34.1 µg/mL (≈ 66.3 µM)
- solubility kinetic ([2]; FaSSIF buffer with pre-dissolved additive, pH 6.5, fassif, TEL in FaSSIF with Lactose monohydrate 667 μg/mL): 32.8 µg/mL (≈ 63.7 µM)
- solubility kinetic ([2]; FaSSIF buffer with pre-dissolved additive, pH 6.5, fassif, TEL in FaSSIF with Mannitol 667 μg/mL): 39.7 µg/mL (≈ 77.1 µM)
- solubility kinetic ([2]; FaSSIF buffer with pre-dissolved additive, pH 6.5, fassif, TEL in FaSSIF with PVP K30 212 μg/mL): 34.7 µg/mL (≈ 67.4 µM)
- solubility kinetic ([2]; FaSSIF buffer with pre-dissolved additive, pH 6.5, fassif, TEL in FaSSIF with PVP K90 212 μg/mL): 34.4 µg/mL (≈ 66.8 µM)
- solubility kinetic ([2]; FaSSIF buffer with pre-dissolved additive, pH 6.5, fassif, TEL in FaSSIF with Sorbitol 667 μg/mL): 30.7 µg/mL (≈ 59.7 µM)
- solubility kinetic ([2]; FaSSIF buffer, pH 6.5, fassif, TEL in FaSSIF, no additive (0 μg/mL)): 37.3 µg/mL (≈ 72.4 µM)
- Solubility in 1 M NaOH solution (Solubility of TEL; 1 M NaOH solution, aqueous): dissolves extremely well
- solubility (Solubility of TEL; pH 6.5, crystalline TEL in FaSSIF media): < 1 µg/mL
- solubility [3]: practically insoluble

Structure (SMILES): CCCc1nc2c(C)cc(-c3nc4ccccc4n3C)cc2n1Cc1ccc(-c2ccccc2C(=O)O)cc1 [Tel_amorphous, telmisartan]
- Pe [4]: 1.19 10^−4 cm/sec
- Pe [5]: 1.03 10^−4 cm/sec
